Test results from ChEMBL document CHEMBL5247644, “Design and Synthesis of Sulfonium Derivatives: A Novel Class of α-Glucosidase Inhibitors with Potent In Vivo Antihyperglycemic Activities” (J Med Chem, 2023).
Activity calls are given as the source filed them. The rule behind the calls is not given here.

What was measured:
Rattus norvegicus [1] = assay: Antihyperglycemic activity in fasted rat assessed as decrease in AUC of blood glucose level at 1 mg/kg measured for 15 to 60 mins by maltose loading test relative to control; type: functional; set-up: scale not given: the % may be the effect or the level left; conditions: time 15-60 min
Rattus norvegicus [2] = assay: Antihyperglycemic activity in fasted rat assessed as decrease in blood glucose level at 1 mg/kg measured after 30 mins by maltose loading test relative to control; type: functional; set-up: scale not given: the % may be the effect or the level left; conditions: 0.5 h
Rattus norvegicus [3] = assay: Antihyperglycemic activity in fasted rat assessed as decrease in blood glucose level at 1 mg/kg measured after 15 mins by maltose loading test relative to control; type: functional; set-up: scale not given: the % may be the effect or the level left; conditions: 0.25 h
Rattus norvegicus [4] = assay: Antihyperglycemic activity in fasted rat assessed as decrease in blood glucose level at 1 mg/kg measured after 60 mins by maltose loading test relative to control; type: functional; set-up: scale not given: the % may be the effect or the level left
Mus musculus [5] = assay: Antihyperglycemic activity in overnight fasted ICR mouse assessed as decrease in blood glucose level at 20 mg/kg, IG administered via tube and measured after 60 mins by sucrose loading test relative to control; type: functional; set-up: scale not given: the % may be the effect or the level left; conditions: 1 h
Mus musculus [6] = assay: Antihyperglycemic activity in overnight fasted ICR mouse assessed as decrease in blood glucose level at 20 mg/kg, IG administered via tube and measured after 30 mins by sucrose loading test relative to control; type: functional; set-up: scale not given: the % may be the effect or the level left; conditions: 0.5 h
Mus musculus [7] = assay: Antihyperglycemic activity in overnight fasted ICR mouse assessed as decrease in AUC of blood glucose level at 20 mg/kg, IG administered via tube and measured after 15 to 60 mins by sucrose loading test relative to control; type: functional; set-up: scale not given: the % may be the effect or the level left; conditions: time 15-60 min
Mus musculus [8] = assay: Antihyperglycemic activity in overnight fasted ICR mouse assessed as decrease in blood glucose level at 20 mg/kg, IG administered via tube and measured after 15 mins by sucrose loading test relative to control; type: functional; set-up: scale not given: the % may be the effect or the level left; conditions: 0.25 h
[9] = molecular target: Sucrase-isomaltase, intestinal (Rattus norvegicus) (UniProt P23739); assay: Potency index, ratio of neoponkoranol IC50 to test compound IC50 for inhibition of sucrase in rat small intestinal brush border membrane vesicles using sucrose as substrate incubated for 30 mins by glucose-oxidase method; type: cell membranes; conditions: Small intestine, Membrane vesicle
[10] = molecular target: T1, Sucrase-isomaltase, intestinal (Rattus norvegicus, UniProt P23739); assay: Binding affinity to sucrase in rat small intestinal brush border membrane vesicles assessed as inhibition constant using sucrose as substrate incubated for 30 mins by glucose-oxidase method; type: cell membranes, Small intestine, Membrane vesicle
[11] = Inhibition of maltase in rat small intestinal brush border membrane vesicles using maltose as substrate incubated for 30 mins by glucose-oxidase method; type: cell membranes, Small intestine, Membrane vesicle
[12] = molecular target: Lysosomal alpha-glucosidase (Rattus norvegicus) (UniProt Q6P7A9); assay: Potency index, ratio of neoponkoranol IC50 to test compound IC50 for inhibition of maltase in rat small intestinal brush border membrane vesicles using maltose as substrate incubated for 30 mins by glucose-oxidase method; type: cell membranes; conditions: Small intestine, Membrane vesicle
[13] = molecular target: T1, Sucrase-isomaltase, intestinal; assay: Inhibition of sucrase in rat small intestinal brush border membrane vesicles using sucrose as substrate incubated for 30 mins by glucose-oxidase method; type: cell membranes, Small intestine, Membrane vesicle
[14] = molecular target: Lysosomal alpha-glucosidase (Rattus norvegicus) (UniProt Q6P7A9); assay: Competitive inhibition of maltase in rat small intestinal brush border membrane vesicles using maltose as substrate incubated for 30 mins by Lineweaver-Burk plot analysis; type: cell membranes; conditions: Small intestine, Membrane vesicle
Mus musculus [15] = assay: Antihyperglycemic activity in overnight fasted ICR mouse assessed as decrease in AUC of blood glucose level at 1 mg/kg, IG administered via tube and measured after 15 to 60 mins by sucrose loading test relative to control; type: functional; set-up: scale not given: the % may be the effect or the level left; conditions: time 15-60 min
Mus musculus [16] = assay: Antihyperglycemic activity in overnight fasted ICR mouse assessed as decrease in AUC of blood glucose level at 10 mg/kg, IG administered via tube and measured after 15 to 60 mins by sucrose loading test relative to control; type: functional; set-up: scale not given: the % may be the effect or the level left; conditions: time 15-60 min
Mus musculus [17] = assay: Antihyperglycemic activity in overnight fasted ICR mouse assessed as decrease in blood glucose level at 10 mg/kg, IG administered via tube and measured after 30 mins by sucrose loading test relative to control; type: functional; set-up: scale not given: the % may be the effect or the level left; conditions: 0.5 h
Mus musculus [18] = assay: Antihyperglycemic activity in overnight fasted ICR mouse assessed as decrease in blood glucose level at 1 mg/kg, IG administered via tube and measured after 15 mins by sucrose loading test relative to control; type: functional; set-up: scale not given: the % may be the effect or the level left; conditions: 0.25 h
Mus musculus [19] = assay: Antihyperglycemic activity in overnight fasted ICR mouse assessed as decrease in blood glucose level at 10 mg/kg, IG administered via tube and measured after 60 mins by sucrose loading test relative to control; type: functional; set-up: scale not given: the % may be the effect or the level left; conditions: 1 h
Mus musculus [20] = assay: Antihyperglycemic activity in overnight fasted ICR mouse assessed as decrease in blood glucose level at 1 mg/kg, IG administered via tube and measured after 60 mins by sucrose loading test relative to control; type: functional; set-up: scale not given: the % may be the effect or the level left
[21] = molecular target: Sucrase-isomaltase, intestinal (Rattus norvegicus) (UniProt P23739); assay: Competitive inhibition of sucrase in rat small intestinal brush border membrane vesicles using sucrose as substrate incubated for 30 mins by Lineweaver-Burk plot analysis; type: cell membranes; conditions: Small intestine, Membrane vesicle
Mus musculus [22] = assay: Antihyperglycemic activity in overnight fasted ICR mouse assessed as decrease in blood glucose level at 1 mg/kg, IG administered via tube and measured after 30 mins by sucrose loading test relative to control; type: functional; set-up: scale not given: the % may be the effect or the level left; conditions: 0.5 h
Mus musculus [23] = assay: Antihyperglycemic activity in overnight fasted ICR mouse assessed as decrease in blood glucose level at 10 mg/kg, IG administered via tube and measured after 15 mins by sucrose loading test relative to control; type: functional; set-up: scale not given: the % may be the effect or the level left; conditions: 0.25 h
[24] = molecular target: Lysosomal alpha-glucosidase (Rattus norvegicus) (UniProt Q6P7A9); assay: Potency index, ratio of acarbose IC50 to test compound IC50 for inhibition of maltase in rat small intestinal brush border membrane vesicles using maltose as substrate incubated for 30 mins by glucose-oxidase method; type: cell membranes; conditions: Small intestine, Membrane vesicle
[25] = molecular target: Lysosomal alpha-glucosidase (Rattus norvegicus) (UniProt Q6P7A9); assay: Potency index, ratio of voglibose IC50 to test compound IC50 for inhibition of maltase in rat small intestinal brush border membrane vesicles using maltose as substrate incubated for 30 mins by glucose-oxidase method; type: cell membranes; conditions: Small intestine, Membrane vesicle

T1 sequence (P23739 1-1013 limits assumed): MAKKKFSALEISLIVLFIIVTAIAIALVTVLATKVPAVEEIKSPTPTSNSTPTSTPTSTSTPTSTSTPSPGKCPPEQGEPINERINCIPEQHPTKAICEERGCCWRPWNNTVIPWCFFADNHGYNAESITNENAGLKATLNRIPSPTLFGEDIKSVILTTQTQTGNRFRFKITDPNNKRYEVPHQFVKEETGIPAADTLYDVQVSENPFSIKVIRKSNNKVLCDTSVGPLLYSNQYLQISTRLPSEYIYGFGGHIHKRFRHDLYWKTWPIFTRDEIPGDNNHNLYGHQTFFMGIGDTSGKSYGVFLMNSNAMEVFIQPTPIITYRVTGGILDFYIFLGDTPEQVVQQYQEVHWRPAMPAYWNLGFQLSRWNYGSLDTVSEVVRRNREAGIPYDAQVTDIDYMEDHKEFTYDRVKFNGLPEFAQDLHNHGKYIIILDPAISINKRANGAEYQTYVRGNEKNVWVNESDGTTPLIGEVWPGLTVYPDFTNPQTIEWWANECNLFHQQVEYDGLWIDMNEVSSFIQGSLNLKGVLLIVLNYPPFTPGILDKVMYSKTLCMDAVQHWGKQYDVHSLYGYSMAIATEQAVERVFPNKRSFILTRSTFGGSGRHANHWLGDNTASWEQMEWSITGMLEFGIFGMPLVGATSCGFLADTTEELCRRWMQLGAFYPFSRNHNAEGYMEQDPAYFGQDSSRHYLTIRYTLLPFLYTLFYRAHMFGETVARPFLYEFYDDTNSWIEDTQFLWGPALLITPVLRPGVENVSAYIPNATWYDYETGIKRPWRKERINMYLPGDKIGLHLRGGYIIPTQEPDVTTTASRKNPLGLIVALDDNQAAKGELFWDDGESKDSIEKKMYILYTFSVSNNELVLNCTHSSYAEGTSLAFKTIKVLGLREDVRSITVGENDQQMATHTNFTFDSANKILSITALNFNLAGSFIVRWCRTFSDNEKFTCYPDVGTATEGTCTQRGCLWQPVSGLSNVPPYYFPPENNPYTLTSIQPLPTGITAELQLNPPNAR
T1 sequence (P23739 1014-1841 limits assumed): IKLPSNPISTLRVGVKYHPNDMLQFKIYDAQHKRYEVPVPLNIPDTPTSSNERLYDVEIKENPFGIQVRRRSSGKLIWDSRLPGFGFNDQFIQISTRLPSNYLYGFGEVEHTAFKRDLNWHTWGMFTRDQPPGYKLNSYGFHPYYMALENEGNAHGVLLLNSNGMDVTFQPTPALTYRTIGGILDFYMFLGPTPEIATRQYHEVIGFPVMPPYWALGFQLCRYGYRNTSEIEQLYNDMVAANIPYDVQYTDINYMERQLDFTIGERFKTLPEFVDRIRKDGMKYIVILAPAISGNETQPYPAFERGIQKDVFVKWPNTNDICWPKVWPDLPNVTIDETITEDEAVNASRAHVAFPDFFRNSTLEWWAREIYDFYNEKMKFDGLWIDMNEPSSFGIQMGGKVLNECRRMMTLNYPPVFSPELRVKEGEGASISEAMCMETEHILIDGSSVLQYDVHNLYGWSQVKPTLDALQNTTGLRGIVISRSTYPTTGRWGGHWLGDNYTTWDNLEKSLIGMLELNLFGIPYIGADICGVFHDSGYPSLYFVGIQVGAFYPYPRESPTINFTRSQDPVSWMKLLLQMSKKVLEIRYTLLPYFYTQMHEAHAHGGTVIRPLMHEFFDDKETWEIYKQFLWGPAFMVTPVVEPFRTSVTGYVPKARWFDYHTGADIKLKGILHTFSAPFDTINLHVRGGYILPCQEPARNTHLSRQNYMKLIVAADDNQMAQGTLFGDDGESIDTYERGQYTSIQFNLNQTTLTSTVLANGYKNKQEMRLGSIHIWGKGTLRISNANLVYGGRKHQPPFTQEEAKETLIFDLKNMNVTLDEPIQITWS
Sucrase-isomaltase, intestinal (Rattus norvegicus), sequence (P23739 1-1013 limits assumed): as the sequence (P23739 1-1013 limits assumed) above
Sucrase-isomaltase, intestinal (Rattus norvegicus), sequence (P23739 1014-1841 limits assumed): as the sequence (P23739 1014-1841 limits assumed) above
Lysosomal alpha-glucosidase (Rattus norvegicus), sequence (Q6P7A9 whole entry): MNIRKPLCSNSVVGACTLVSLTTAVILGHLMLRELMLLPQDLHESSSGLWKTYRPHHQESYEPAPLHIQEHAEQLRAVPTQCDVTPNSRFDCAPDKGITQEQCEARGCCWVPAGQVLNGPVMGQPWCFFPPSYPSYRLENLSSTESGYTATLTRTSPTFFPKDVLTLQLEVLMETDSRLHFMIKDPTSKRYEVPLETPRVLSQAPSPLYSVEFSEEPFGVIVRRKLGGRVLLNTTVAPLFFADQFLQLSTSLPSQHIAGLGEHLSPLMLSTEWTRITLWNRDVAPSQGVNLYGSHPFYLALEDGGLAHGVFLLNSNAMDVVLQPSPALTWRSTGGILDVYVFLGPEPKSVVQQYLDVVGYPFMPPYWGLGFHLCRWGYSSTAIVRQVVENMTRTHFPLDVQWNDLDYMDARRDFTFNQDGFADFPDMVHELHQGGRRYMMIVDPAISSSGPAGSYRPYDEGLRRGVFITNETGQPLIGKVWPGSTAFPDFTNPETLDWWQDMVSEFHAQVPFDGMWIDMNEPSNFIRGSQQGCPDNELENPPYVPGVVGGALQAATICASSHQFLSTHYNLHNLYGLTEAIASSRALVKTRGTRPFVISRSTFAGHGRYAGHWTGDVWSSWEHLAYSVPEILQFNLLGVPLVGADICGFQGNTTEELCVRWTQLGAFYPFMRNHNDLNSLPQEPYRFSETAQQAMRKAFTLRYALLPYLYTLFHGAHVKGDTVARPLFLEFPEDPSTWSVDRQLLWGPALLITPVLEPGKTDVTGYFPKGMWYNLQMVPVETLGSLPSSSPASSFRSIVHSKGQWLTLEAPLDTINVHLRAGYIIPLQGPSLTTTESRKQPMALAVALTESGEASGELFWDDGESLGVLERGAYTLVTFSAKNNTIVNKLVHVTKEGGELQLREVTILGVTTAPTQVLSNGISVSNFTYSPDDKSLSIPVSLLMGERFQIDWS

SMILES: OCC(CO)N[C@H]1C[C@](O)(CO)[C@@H](O)[C@H](O)[C@H]1O [VOGLIBOSE]
- Activity (Rattus norvegicus [1]): 41.1%
- Activity (Rattus norvegicus [2]): 55.1%
- Activity (Rattus norvegicus [3]): 50%
- Activity (Rattus norvegicus [4]): 43.3%

SMILES: C[C@H]1O[C@H](O[C@H]2[C@H](O)[C@@H](O)[C@@H](O[C@H]3[C@H](O)[C@@H](O)C(O)O[C@@H]3CO)O[C@@H]2CO)[C@H](O)[C@@H](O)[C@@H]1N[C@H]1C=C(CO)[C@@H](O)[C@H](O)[C@H]1O (stereo partly drawn) [ACARBOSE]
- Activity (Mus musculus [5]): 45.1%
- Activity (Mus musculus [6]): 50.9%
- Activity (Mus musculus [7]): 40%
- Activity (Mus musculus [8]): 40.2%

SMILES: OC[C@@H]1[C@@H](O)[C@H](O)C[S@@+]1C[C@@H](O)[C@H]1OC(c2ccccc2)OC[C@H]1O (stereo partly drawn)
- Ratio IC50 [9]: 5
- Ki [10]: 758 nM
- IC50 [11]: 830 nM
- Ratio IC50 [12]: 10
- IC50 [13]: 420 nM

SMILES: OC[C@@H]1[C@@H](O)[C@H](O)C[S@@+]1C[C@@H](O)[C@H]1OC(c2ccccc2C(F)(F)F)OC[C@H]1O.[Cl-] (stereo partly drawn)
- inhibition [14]: Active
- Activity (Rattus norvegicus [1]): 39.7%
- Activity (Mus musculus [15]): 34%
- Activity (Mus musculus [16]): 45.8%
- Ki [10]: 398 nM
- IC50 [11]: 230 nM
- Ratio IC50 [12]: 40
- Activity (Mus musculus [17]): 56.6%
- Activity (Mus musculus [18]): 35.1%
- Activity (Mus musculus [19]): 51%
- Activity (Mus musculus [20]): 37.8%
- Activity (Rattus norvegicus [2]): 48.7%
- Activity (Rattus norvegicus [3]): 45.7%
- Activity (Rattus norvegicus [4]): 43.2%
- inhibition [21]: Active
- Activity (Mus musculus [22]): 47.3%
- IC50 [13]: 220 nM
- Activity (Mus musculus [23]): 43.5%

SMILES: OC[C@@H]1[C@@H](O)[C@H](O)C[S@@+]1C[C@@H](O)[C@H]1OC(c2ccc(F)cc2)OC[C@H]1O (stereo partly drawn)
- IC50 [11]: 3000 nM
- IC50 [13]: 2500 nM

SMILES: OC[C@@H]1[C@@H](O)[C@H](O)C[S@@+]1C[C@@H](O)[C@H]1OC(c2ccc(Cl)cc2)OC[C@H]1O (stereo partly drawn)
- IC50 [11]: 4000 nM
- IC50 [13]: 2300 nM

SMILES: OC[C@@H]1[C@@H](O)[C@H](O)C[S@@+]1C[C@@H](O)[C@H]1OC(c2cccc(C(F)(F)F)c2)OC[C@H]1O (stereo partly drawn)
- IC50 [11]: 1500 nM
- IC50 [13]: 300 nM

SMILES: OC[C@@H]1[C@@H](O)[C@H](O)C[S@@+]1C[C@@H](O)[C@H]1OC(c2ccccc2Cl)OC[C@H]1O (stereo partly drawn)
- Ki [10]: 474 nM
- IC50 [11]: 410 nM
- IC50 [13]: 540 nM

SMILES: O=[N+]([O-])c1cccc(C2OC[C@@H](O)[C@@H]([C@H](O)C[S@+]3C[C@@H](O)[C@H](O)[C@H]3CO)O2)c1 (stereo partly drawn)
- IC50 [11]: 6700 nM
- IC50 [13]: 3400 nM

SMILES: OC[C@@H]1[C@@H](O)[C@H](O)C[S@@+]1C[C@@H](O)[C@H]1OC(c2ccc(C(F)(F)F)cc2)OC[C@H]1O (stereo partly drawn)
- IC50 [11]: 3500 nM
- IC50 [13]: 2300 nM

SMILES: O=[N+]([O-])c1ccc(C2OC[C@@H](O)[C@@H]([C@H](O)C[S@+]3C[C@@H](O)[C@H](O)[C@H]3CO)O2)cc1 (stereo partly drawn)
- IC50 [11]: 4500 nM
- IC50 [13]: 4700 nM

SMILES: Cl.O=[N+]([O-])c1ccccc1C1OC[C@@H](O)[C@@H]([C@H](O)C[S@+]2C[C@@H](O)[C@H](O)[C@H]2CO)O1 (stereo partly drawn)
- Ratio IC50 [9]: 20
- inhibition [14]: Active
- Activity (Rattus norvegicus [1]): 45.6%
- Activity (Mus musculus [15]): 38.1%
- Activity (Mus musculus [16]): 50.1%
- Ki [10]: 352 nM
- IC50 [11]: 200 nM
- Ratio IC50 [12]: 40
- Activity (Mus musculus [17]): 60%
- Activity (Mus musculus [18]): 41.1%
- Activity (Mus musculus [19]): 54.6%
- Activity (Mus musculus [20]): 43.9%
- Activity (Rattus norvegicus [2]): 54.6%
- Activity (Rattus norvegicus [3]): 50%
- Activity (Rattus norvegicus [4]): 48.3%
- inhibition [21]: Active
- Activity (Mus musculus [22]): 48%
- IC50 [13]: 100 nM
- Ratio IC50 [24]: 16
- Activity (Mus musculus [23]): 49%
- Ratio IC50 [25]: 7.5

SMILES: OC[C@@H]1[C@@H](O)[C@H](O)C[S@@+]1C[C@@H](O)[C@H]1OC(c2cccc(Cl)c2)OC[C@H]1O (stereo partly drawn)
- IC50 [11]: 3100 nM
- IC50 [13]: 1900 nM

SMILES: OC[C@@H]1[C@@H](O)[C@H](O)C[S@@+]1C[C@@H](O)[C@@H](O)[C@@H](O)[C@@H](O)CO
- Activity (Rattus norvegicus [1]): 23%
- Activity (Mus musculus [15]): 29.6%
- Activity (Mus musculus [16]): 40%
- IC50 [11]: 7800 nM
- Activity (Mus musculus [17]): 48.3%
- Activity (Mus musculus [18]): 27.8%
- Activity (Mus musculus [19]): 45.1%
- Activity (Mus musculus [20]): 35.3%
- Activity (Rattus norvegicus [2]): 34.5%
- Activity (Rattus norvegicus [3]): 35.3%
- Activity (Rattus norvegicus [4]): 19.8%
- Activity (Mus musculus [22]): 39.6%
- IC50 [13]: 1900 nM
- Activity (Mus musculus [23]): 37.5%

SMILES: OC[C@@H]1[C@@H](O)[C@H](O)C[S@@+]1C[C@@H](O)[C@H]1OC(c2ccccc2F)OC[C@H]1O (stereo partly drawn)
- Ki [10]: 562 nM
- IC50 [11]: 840 nM
- IC50 [13]: 400 nM

SMILES: OC[C@@H]1[C@@H](O)[C@H](O)C[S@@+]1C[C@@H](O)[C@H]1OC(c2cccc(F)c2)OC[C@H]1O (stereo partly drawn)
- IC50 [11]: 1700 nM
- IC50 [13]: 700 nM
